Target: T1, HIV-1 reverse transcriptase (Human immunodeficiency virus type 1 group M subtype B, UniProt P04585)
T1 construct: equivalent to 2.85nM for an equimolar mixture of p66 and p51 polypeptides; host or cells: E. coli
Test: Assay for reverse transcriptase activity (incorporation of radioactive dGMP from [3H]dGTP into Poly (rC). p(dG)12-18)
Type: biochemical, human immunodeficiency virus type 1 (HIV-1)
Conditions: for IC50: approximate, from plot of % inhibition against concentration of inhibitor, 1.02µM [3H]dGTP, 65 minutes at 37°C
Procedure: Chemicals [^3H]dGTP (16.3 Ci/mmol) was purchased from Amersham International, Aylesbury, U.K. Template primer Poly (rC). p(dG)12-18 (1:1, rC:dG ratio) and 2',3'-dideoxyguanosine-5-triphosphate (ddGTP) were obtained from Pharmacia Ltd., Milton Keynes, U.K. Penciclovir triphosphate (PCV-TP) was prepared in the laboratories of SmithKline Beecham Pharmaceuticals, Great Burgh, United Kingdom.
Reverse transcriptase Purified, E. coli expressed HIV-1 reverse transcriptase (RT) was supplied by the Protein Biochemistry Department of SmithKline Beecham Pharmaceuticals, Upper Merion, U.S.A. The enzyme was stored and diluted in a buffer containing 50mM Tris-HCl (pH 8.0), 10mM Hepes, 110mM NaCl, 5.7mM DTT, 0.3mM EDTA, 0.06% Triton X-100, 50% glycerol.
Assay for reverse transcriptase activity The reaction mixture for the HIV-1 RT assay contained in a volume of 120µl: 33mM Tris HCl (pH 8.0), 100mM KCl, 3.3mM MgCl2, 3.3mM dithiothreitol, 0.2mM glutathione, 0.33mM EGTA (ethylene glycol-bis-(β-aminoethyl ether) N,N-tetra acetic acid), 0.033% Triton X-100, 1.02µM [^3H]dGTP, 0-12.39µM inhibitors ddGTP, PCV-TP, 0.3 A260 units/ml Poly (rC). p(dG)12-18 and 167ng/ml RT (equivalent to 2.85nM for an equimolar mixture of p66 and p51 polypeptides). The reaction mixtures without RT were prepared in the microwells of a 96-well plate and preincubated at 37°C before the reactions were started by the addition of 20µl of the enzyme solution. The plates were then incubated for 65 minutes at 37°C. The incorporation rate was linear for the uninhibited control reaction over this time period. The reactions were terminated by the addition of 40µl of EDTA solution (0.2M, pH7.0). The individual reaction mixtures were transferred to a DEAE filter mat (1205-405, LKB Wallac, Finland), prewetted with 0.3M NaCl/0.03M Na citrate, using a cell harvester (1295-001, LKB Wallac). The filter mat was washed three times in the NaCl/Na citrate buffer and then once in 95% ethanol. Scintillation fluid (Beta Plate Scint, LKB Wallac) was added to the dried filter, and the reaction mixtures assayed for incorporation of radioactive dGMP in an LKB 1205 Beta Plate Liquid Scintillation Counter.

Nc1nc2c(ncn2CCC(CO)COP(=O)(O)OP(=O)(O)OP(=O)(O)O)c(=O)[nH]1 (racemic) [PCV-TP, Penciclovir triphosphate]
inhibition at 0.124 µM (0.124 µM PCV-TP): 4%
Incorporation of dGMP (0.124 µM PCV-TP, uninhibited control 88892): 85313 c.p.m.
inhibition at 1.24 µM (1.24 µM PCV-TP): 21.2%
Incorporation of dGMP (1.24 µM PCV-TP, uninhibited control 88892): 70061 c.p.m.
inhibition at 3.1 µM (3.10 µM PCV-TP): 41.7%
Incorporation of dGMP (3.10 µM PCV-TP, uninhibited control 88892): 51866 c.p.m.
inhibition at 6.19 µM (6.19 µM PCV-TP): 63%
Incorporation of dGMP (6.19 µM PCV-TP, uninhibited control 88892): 32921 c.p.m.
inhibition at 9.29 µM (9.29 µM PCV-TP): 70.3%
Incorporation of dGMP (9.29 µM PCV-TP, uninhibited control 88892): 26436 c.p.m.
inhibition at 12.39 µM (12.39 µM PCV-TP): 73.2%
Incorporation of dGMP (12.39 µM PCV-TP, uninhibited control 88892): 23844 c.p.m.
IC50: 4300 nM

Nc1nc2c(ncn2[C@H]2CC[C@@H](COP(=O)(O)OP(=O)(O)OP(=O)(O)O)O2)c(=O)[nH]1 [ddGTP, 2',3'-dideoxyguanosine-5-triphosphate, reference compound]
inhibition at 0.001 µM (1 nM ddGTP): 0%
Incorporation of dGMP (1 nM ddGTP, uninhibited control 117892): 119726 c.p.m.
inhibition at 0.01 µM (10 nM ddGTP): 23.7%
Incorporation of dGMP (10 nM ddGTP, uninhibited control 117892): 89949 c.p.m.
inhibition at 0.025 µM (25 nM ddGTP): 50.2%
Incorporation of dGMP (25 nM ddGTP, uninhibited control 117892): 58703 c.p.m.
inhibition at 0.05 µM (50 nM ddGTP): 70.2%
Incorporation of dGMP (50 nM ddGTP, uninhibited control 117892): 35091 c.p.m.
inhibition at 0.075 µM (75 nM ddGTP): 77.8%
Incorporation of dGMP (75 nM ddGTP, uninhibited control 117892): 26132 c.p.m.
inhibition at 0.1 µM (100 nM ddGTP): 81.2%
Incorporation of dGMP (100 nM ddGTP, uninhibited control 117892): 22161 c.p.m.
IC50: 25 nM

— patent EP0538305B1, “P[…] F[…] RELATED GUANINE DERIVATIVES FOR THE TREATMENT OF THE HIV-1 INFECTIONS” (BEECHAM GROUP PLC, priority 1990, dated 1992)
